Measured values: paper PMC9735595, “Advanced EPI-X4 Derivatives Covalently Bind Human Serum Albumin Resulting in Prolonged Plasma Stability” (International Journal of Molecular Sciences, 2022)
Ends that are not written are not given here. Peptide text beside a SMILES is read from it. * marks the point of attachment. Cam = NC(=O)C*

Legend:
[1] = Functional plasma stability assay (remaining activity in CXCR4 antibody competition after incubation in plasma); format: in vitro ADME, human; conditions: 37 °C; for half-life in human plasma, functional assay: 20 µM in 100% pooled human K3 EDTA plasma (6 donors), aliquots serially diluted in cold PBS, 12G5-APC competition on SupT1 cells, 2 h at 4 °C, flow cytometry, activity = IC50(t)/IC50(t=0) x 100, one-phase decay, 3 rounds of plasma incubation
Protocol: For the functional assay, WSC02 (a) or JM#21 (b) were spiked into human plasma and incubated at 37 °C. At indicated time points, aliquots were taken and serially diluted in cold PBS. […] After 2 h, unbound antibody was removed, and cells were analyzed by flow cytometry. Remaining activity was determined described before. For detection by mass spectrometry, WSC02 (a) or JM#21 (b) were spiked into plasma and incubated at 37 °C. and analyzed in LC-MS/MS. Half-lives were calculated using a one-phase decay model in GraphPad Prism. Curve fits are shown as dashed lines. Data shown are derived from 3 individual rounds of plasma incubation ± SEM.
(§1) SupT1 cells were cultured in RPMI supplemented with 10% FCS, 100 units/mL penicillin, 100 µg/mL streptomycin, 2 mM L-glutamine, and 1 mM HEPES (Gibco). Blood was collected from healthy donors (male and female, average age 28 years) using S-Monovettes K3 EDTA (Sarstedt). Plasma was obtained by centrifugation of whole blood at 2.500× g for 15 min. Plasma of 6 donors was pooled and stored at −80 °C.
Competition of compounds with an APC-labeled antibody specific for ECL2 of CXCR4 (clone 12G5) was performed in SupT1 cells as described. For this, cells (without buffer) were precooled at 4 °C and a serial dilution of compounds in PBS together with a constant concentration of antibody diluted in buffer (PBS with 1% FCS) was added. After 2 h at 4 °C, unbound antibody was removed and cells analyzed in flow cytometry (CytoFLEX, Beckman Coulter). Mean fluorescence signals (MFI) in the presence of PBS only was set 100%. Isotype control was set 0%. Half-maximal inhibitory concentrations (IC50) were calculated in GraphPad Prism by nonlinear regression.
Decrease in CXCR4-binding activity after incubation of compounds in human plasma was determined to calculate functional stability as described (Harms et al. 2020). For this purpose, the peptides were dissolved at a concentration of 20 µM in 100% plasma. The first aliquot (t = 0) was immediately taken and stored at −80 °C. Aliquots were taken at given time points and also stored. To determine CXCR4 binding, all aliquots were thawed together and serially diluted in ice-cold PBS and subsequently, antibody competition was performed as described before. IC50 at t = 0 defined as 100% activity and decrease in activity was calculated by IC50 (t)/IC50 (t = 0) × 100. Half-lives were determined by one-phase decay using GraphPad Prism.

[2] = Half-life determination in plasma by mass spectrometry (LC-MS/MS); format: in vitro ADME, human; conditions: 37 °C, one-phase decay; for half-life / half-life at 7 µM: both sexes, pooled K3 EDTA plasma, 3 rounds; for half-life: human plasma, LC-MS/MS of intact peptide normalized to t = 0, sample treatment for the variants not stated, read-out: half-life in human plasma, mass spectrometry, peptides without a reactive Cys-thiol; for half-life in human plasma, mass spectrometry, samples diluted with 0.1% TFA / half-life at 7 µM: 7 µM in human plasma; for half-life in human plasma, mass spectrometry, samples diluted with 0.1% TFA: aliquots diluted in 0.1% TFA only, LC-MS/MS peak area of intact free peptide, triplicate; for half-life at 7 µM: TFA samples ten-fold diluted with 50 mM NH4HCO3 + 10 mM DTT + 6M GuHCl before LC-MS/MS, read-out: half-life in human plasma, mass spectrometry, after GuHCl + DTT ("real" half-live)
Protocol: A 50 µL-aliquot of human plasma was spiked with 7 µM JM#21 or WSC02. The mixture was stirred for a few seconds and incubated at 37 °C. Five microliter aliquots were separated after 0, 5, 10, 20, 30, 45, 60, 90, and 120 min. Aliquots were immediately diluted with 1.5 mL 0.1% TFA and stored at −80 °C. The experiment was performed in triplicate. Additionally, for the measurement of denatured samples prior to MS measurement, all of the samples stored in 0.1% TFA were ten-fold diluted with 50 mM NH4HCO3 + 10 mM DTT + 6M GuHCl. A 15 uL-aliquot of every sample was used for mass spectrometry analysis as follows: samples were measured using an Orbitrap Elite Hybrid mass spectrometry system (Thermo Fisher Scientific, Bremen, Germany) online coupled to an U3000 RSLCnano (Thermo Fisher Scientific, Idstein, Germany) employing an Acclaim PepMap analytical column (75 μm × 500 mm, 2 μm, 100 Å, Thermo Fisher Scientific, Bremen, Germany) at a flow rate of 250 nL/min. Using a C18 μ-precolumn (0.3 mm × 5 mm, PepMap, Dionex LC Packings, Thermo Fisher Scientific, Bremen, Germany), samples were preconcentrated and washed with 0.1% TFA for 5 min at a flow rate of 30 μL/min. The subsequent separation was carried out using a binary solvent gradient consisting of solvent A (0.1% FA) and solvent B (86% ACN, 0.1% FA). The column was initially equilibrated in 5% B. In the first elution step, the percentage of B was raised from 5 to 15% in 5 min, followed by an increase from 15 to 40% B in 30 min. The column was washed with 95% B for 4 min and re-equilibrated with 5% B for 19 min. The mass spectrometer was equipped with a nanoelectrospray ion source and distal-coated SilicaTips (FS360-20-10-D, New Objective, Woburn, MA, USA). The instrument was externally calibrated using standard compounds (LTQ Velos ESI Positive Ion Calibration Solution, Pierce, Thermo Scientific, Rockford, IL, USA). The system was operated using the following parameters: spray voltage, 1.5 kV; capillary temperature, 250 °C; S-lens RF level, 68.9%. XCalibur 2.2 SP1.48 (Thermo Fisher Scientific, Bremen, Germany) was used for data-dependent tandem mass spectrometry (MS/MS) analyses. Full scans ranging from m/z 370 to 1700 were acquired in the Orbitrap at a resolution of 30,000 (at m/z 400) with automatic gain control (AGC) enabled and set to 106 ions and a maximum fill time of 500 ms. Up to 20 multiply-charged peptide ions were selected from each survey scan for collision-induced fragmentation (CID) in the linear ion trap using AGC set to 10,000 ions and a maximum fill time of 100 ms. For MS/MS fragmentation, normalized collision energy of 35% with an activation q of 0.25 and an activation time of 30 ms was used.
For visualization in the XCalibur Qual Browser 2.0 (Thermo Fisher Scientific, Bremen, Germany), extracted ion xhromatograms (XICs) of the most intense isotope (±20 ppm), as theoretically predicted, at z = 3 or z = 4 were calculated. Using default parameters within the QualBrowser, peak areas were calculated and exported. Half-lives were determined by fitting the data (peak area vs. time) to a one-phase exponential decay model using GraphPad Prism 8.4.3 (GraphPad Prism Software LLC, San Diego, CA, USA).
(§2) The influence of several reagents on peptide detection was tested with aliquots separated (peptide + plasma, 300-fold diluted in 0.1%TFA) at t = 10 min. The aliquots were analyzed by LC-MS/MS, as previously described, after 10-fold dilution in 0.1% TFA, 6M GuHCl, 50 mM NH4HCO3 + 10 mM DTT, and 50 mM NH4HCO3 + 10 mM DTT + 6M GuHCl, respectively.
as §1

[3] = biological target: T1, human serum albumin (HSA) (Homo sapiens, UniProt P02768); experiment: Interaction with plasma components: size-exclusion fractionation and tryptic digestion of spiked plasma, LC-MS/MS; format: in vitro ADME; conditions: plasma spiked with peptide, 37 °C, 10 min; SEC fractions treated with DTT + GuHCl; tryptic digest LC-MSMS
T1 construct: from tissue; host or cells: human plasma
Protocol: as §2
A 5 µL aliquot of the peptides in plasma, after incubation at 37 °C for 10 min, was injected into a size-exclusion column Yarra SEC-2000 (Phenomenex, CA, USA) of dimensions 7.8 × 300 mm, 3 µm particle size. The separation was done at a flow rate of 0.5 mL/min using a buffer composed of 25 mM NaH2PO4 + 25 mM Na2HPO4 + 250 mM KCl (pH 6.65). Fractions were collected every one minute, and then analyzed by mass spectrometry in denaturing conditions (1/10 in 50 mM NH4HCO3 + 10 mM DTT + 6M GuHCl) as previously described.
A 5 µL aliquot of plasma spiked with WSC02 or JM#21 was mixed with trypsin (50:1) and incubated at 37 degrees for 16 h. Half of the digested sample was reduced and carbamidomethylated, as described above. The digested samples, both unmodified and carbamidomethylated, were analyzed by mass spectrometry, as previously described in this section.

CXCR4 = conditions: cited from earlier work
From the text: In addition, both peptides contain a cystein ...

[4] = human plasma, 30 min, antibody competition read-out, 3 rounds
[5] = human plasma, antibody competition read-out, 3 rounds

T1 sequence (P02768 25-609): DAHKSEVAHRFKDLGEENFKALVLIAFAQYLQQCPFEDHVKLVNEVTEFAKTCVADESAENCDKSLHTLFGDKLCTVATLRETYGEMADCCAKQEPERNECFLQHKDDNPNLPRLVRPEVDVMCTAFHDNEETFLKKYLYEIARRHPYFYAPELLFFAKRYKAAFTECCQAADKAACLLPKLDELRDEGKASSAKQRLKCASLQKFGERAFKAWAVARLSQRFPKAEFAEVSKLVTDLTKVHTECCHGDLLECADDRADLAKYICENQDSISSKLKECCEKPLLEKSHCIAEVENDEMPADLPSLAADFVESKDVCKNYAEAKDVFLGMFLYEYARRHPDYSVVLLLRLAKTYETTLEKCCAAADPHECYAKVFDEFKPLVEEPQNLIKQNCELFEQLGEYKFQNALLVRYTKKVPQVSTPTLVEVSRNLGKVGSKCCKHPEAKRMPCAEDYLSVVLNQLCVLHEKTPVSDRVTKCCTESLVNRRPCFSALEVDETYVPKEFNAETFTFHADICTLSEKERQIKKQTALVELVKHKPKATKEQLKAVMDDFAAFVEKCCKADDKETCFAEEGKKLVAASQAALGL

Molecule	half-life in human plasma, functional assay [1]	activity reduced by (loss of activity) after 30 min in plasma [1, 4]	half-life [2]	activity decreased by (loss of activity) after 15 min in plasma [1, 5]	interaction with human serum albumin in plasma (in words) [3]	half-life in human plasma, functional assay ([1]; listed as WSC02)	remaining activity after 60 min in plasma ([1]; human plasma, 60 min, antibody competition read-out, 3 rounds)	half-life in human plasma, mass spectrometry, samples diluted with 0.1% TFA [2]	half-life at 7 µM [2]	half-life in human plasma, functional assay ([1]; listed as JM#21)	remaining activity after 30 min in plasma [1, 4]	higher antagonistic activity as compared with EPI-X4 (CXCR4)
CC[C@H](C)[C@H](N)C(=O)N[C@H](C(=O)N[C@@H](CCCNC(=N)N)C(=O)N[C@@H](Cc1c[nH]c2ccccc12)C(=O)N[C@@H](CO)C(=O)N[C@@H](CCCCN)C(=O)N[C@@H](CCCCN)C(=O)N[C@H](C(=O)N1CCC[C@H]1C(=O)N[C@@H](CSCC(N)=O)C(=O)N[C@H](C(=O)N[C@@H](CO)C(=O)O)C(C)C)C(C)C)C(C)C [WSC02 Cdm] (H-IVRWSKKVPC(Cam)VS-OH)	6 min	93%	5 min									
ILRWSRKLPSVS [JM#21 C10S]	4 min		4 min	91%								
IVRWSKKVPSVS [WSC02 C10S]	7 min	92%	4 min									
IVRWSKKVPCVS [EPI-X4 WSC02]	9 min				forming a disulfide bridge with a free thiol group (Cys34) on HSA	about 9 min	20%	0.7 min	6 min			
CC[C@H](C)[C@H](N)C(=O)N[C@@H](CC(C)C)C(=O)N[C@@H](CCCNC(=N)N)C(=O)N[C@@H](Cc1c[nH]c2ccccc12)C(=O)N[C@@H](CO)C(=O)N[C@@H](CCCNC(=N)N)C(=O)N[C@@H](CCCCN)C(=O)N[C@@H](CC(C)C)C(=O)N1CCC[C@H]1C(=O)N[C@@H](CSCC(N)=O)C(=O)N[C@H](C(=O)N[C@@H](CO)C(=O)O)C(C)C [JM#21 Cdm]	3 min		3 min	95%								
CC[C@H](C)[C@H](N)C(=O)N[C@@H](CC(C)C)C(=O)N[C@@H](CCCNC(=N)N)C(=O)N[C@@H](Cc1c[nH]c2ccccc12)C(=O)N[C@@H](CO)C(=O)N[C@@H](CCCNC(=N)N)C(=O)N[C@@H](CCCCN)C(=O)N[C@@H](CC(C)C)C(=O)N1CCC[C@H]1C(=O)N[C@@H](CS)C(=O)N[C@H](C(=O)N[C@@H](CO)C(=O)O)C(C)C [EPI-X4 JM#21]	6 min			69%	forming a disulfide bridge with a free thiol group (Cys34) on HSA			1.7 min	5 min	~6 min	10%	~300 fold
